In test [1] the test system is presynaptic α-2-adrenoceptor. The note with it: cited from earlier work.
The conditions of test [2]: in vivo; cited from earlier work.
Test [3] concerns 5-HT receptors. The note with it: cited from earlier work.
In test [4] the test system is post-synaptic receptors in the hippocampus. The note with it: cited from earlier work.
The subject of test [5] is depressed subjects. Put plainly: Antidepressant efficacy with and without concomitant NSAIDs in depressed subjects (HAMD-17). The class given is in vivo, human. Particulars: for HAMD-17 CFB (change from baseline) / Remitters (HAMD-17 score of 7 or less after treatment) / Responders (50% improvement in HAMD-17): end of treatment. The source says: To control for a placebo effect, 1045 depressed patients taking placebo were studied. Finally, 1041 depressed subjects taking gepirone-ER were studied. In contrast to the STAR-D study, three measures of efficacy were employed: remitters (HAMD-17 score 7 or less at end of treatment), responders (HAMD-17 50% reduction from baseline score at end of treatment) and HAMD-17 total score (change from baseline at end of treatment). Further, to test a possible dose of NSAID effect, two dose levels were tested: subjects taking any NSAID any time and subjects taking daily aspirin and other NSAIDs.

Test [6] concerns depressed patients taking an NSAID. Nature of the test: Individual patient cases from the study (Examples 1 and 2), HAMD-17. The class given is in vivo, human. Particulars: Example 2: person taking ibuprofen. The source says:
The following Examples represent a sampling of the subjects studied:
A person came to a psychiatric clinic complaining of depression. Their symptoms included: depressed mood, insomnia, lack of energy, low sex drive, and mild suicidal thoughts. They also were being treated for cardiac complains and was taking a daily NSAID (aspirin) to improve blood flow. They refused to discontinue their aspirin because their cardiologist had prohibited them from doing so. Their initial HAMD-17 was 26. After 8 weeks of treatment with Gepirone-ER all of their depressive symptoms had been eliminated.
A person came into the same psychiatric clinic complaining of depression. Their symptoms included depressed mood, lethargy, guilt, and trouble waking up early in the morning. They were also being treated by their neurologist for chronic headaches with ibuprofen. They refused to discontinue the ibuprofen because the headaches interfered with their ability to work. Their initial HAMD-17 was 16. […] A further trial of a second SSRI (citalopram) also failed.

The mark [7] stands for this setting: High NSAID (daily aspirin and other NSAIDs).
The mark [8] stands for this setting: High NSAID (daily aspirin and other NSAIDs), listed as fluoxetine.
[9] abbreviates: no NSAID (None), comparison to Any NSAID.
The mark [10] stands for this setting: no NSAID (None), comparison to High NSAID.
[11] abbreviates: subjects taking any NSAID any time.

For `c1cnc(N2CCNCC2)nc1` [1-PP, 1-(2-pyrimidinyl)piperazine], in test [1], the “Action at presynaptic α-2-adrenoceptor” value is on record as “antagonist”. Besides, in test [2], the “Antidepressant-like characteristics in pre-clinical tests” value is “did not exhibit antidepressant-like characteristics”.

Turning to `CC1(C)CC(=O)N(CCCCN2CCN(c3ncccn3)CC2)C(=O)C1O` (stereo not drawn) [3′-OH gepirone], the “Affinity for 5-HT receptors” value in test [3] is on record as “significant affinity”. Further, the “Agonism at post-synaptic receptors in the hippocampus” value in test [4] was “full agonism”.

With `CNCCC(Oc1ccc(C(F)(F)F)cc1)c1ccccc1` (stereo not drawn) [Fluoxetine], the “HAMD-17 CFB (change from baseline)” value in test [5] (setting [7]) is given as −9.03; in test [5] (setting [8]), −9.04; in test [5] (setting [9]), −10.5; in test [5] (setting [11]), −9.57. Further, the “Remitters (HAMD-17 score of 7 or less after treatment)” value is reported as 27% in test [5] (setting [7]), 28.3% in test [5] (setting [9]), 32% in test [5] (setting [10]) and 29% in test [5] (setting [11]). Further, the “Responders (50% improvement in HAMD-17)” value in test [5] (setting [7]) amounted to 45%; in test [5] (setting [8]), 45%; in test [5] (setting [9]) it was 51%; in test [5] (setting [10]) it was 55%; in test [5] (no NSAID (None), comparison to High NSAID, listed as fluoxetine), 55%; in test [5] (setting [11]), 48%. The “Effect of NSAIDs on antidepressant efficacy” value in test [5] (either NSAID dose level, three efficacy measures) is listed as “NSAIDs interfere with the antidepressant activity”. Besides, the Clinical outcome in test [6] is listed as “no improvement”. Further, the “HAMD-17 score after treatment” value in test [6] (initial HAMD-17 16, after 8 weeks of treatment) was 20.

The values above are taken from patent US20130150375A1, “GEPIRONE-ER TREATMENT OF MAJOR DEPRESSION IN PATIENTS TAKING NON-STEROIDAL ANTI-INFLAMMATORY DRUGS (NSAIDs)” (Fabre-Kramer Pharmaceuticals.Inc., priority 2011, published 2013).
